Reference: PubChem BioAssay AID256 (DTP/NCI, 2004)
Toxic doses and inconclusive results are not listed. Rule for the calls: active = survival T/C of 150% or more; inactive = T/C below 125% in these data.

Test system: CD2F1 mice, L1210 leukemia ip, survival T/C
Experiment: NCI In Vivo Anticancer Drug Screen. Data for tumor model L1210 Leukemia (intraperitoneal) in CD2F1 (CDF1) mice
Settings: higher = longer survival
Summary of the method: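 Read-out first: treated-group measurement over vehicle-control measurement, expressed as a ratio. Animals bore a transplanted tumor line and were dosed with compound or vehicle.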

[1] = endpoint: mean survival time, dose: 100.0 mg/kg/injection, schedule: Q04DX003 (ip), vehicle: saline with Tween-80
[2] = endpoint: mean survival time, dose: 200.0 mg/kg/injection, schedule: Q04DX003 (ip), vehicle: saline with Tween-80
[3] = endpoint: mean survival time, dose: 400.0 mg/kg/injection, schedule: Q04DX003 (ip), vehicle: saline with Tween-80
[4] = endpoint: mean survival time, dose: 100.0 mg/kg/injection, schedule: Q01DX009 (ip), vehicle: saline with Tween-80
[5] = endpoint: mean survival time, dose: 200.0 mg/kg/injection, schedule: Q01DX009 (ip), vehicle: saline with Tween-80
[6] = endpoint: mean survival time, dose: 100.0 mg/kg/injection, schedule: Q04DX002 (ip), vehicle: saline with Tween-80
[7] = endpoint: mean survival time, dose: 200.0 mg/kg/injection, schedule: Q04DX002 (ip), vehicle: saline with Tween-80
[8] = endpoint: mean survival time, dose: 400.0 mg/kg/injection, schedule: Q04DX002 (ip), vehicle: saline with Tween-80

Measured: T/C

C[CH2][Sn]([CH2]C)([O]S(=O)(=O)CC12CCC(CC1=O)C2(C)C)[O]S(=O)(=O)CC12CCC(CC1=O)C2(C)C
inactive: endpoint: mean survival time, dose: 1.56 mg/kg/injection, schedule: Q01DX009 (ip), vehicle: saline 94 % of control | endpoint: mean survival time, dose: 3.12 mg/kg/injection, schedule: Q01DX009 (ip), vehicle: saline 94 % of control | endpoint: mean survival time, dose: 6.25 mg/kg/injection, schedule: Q01DX009 (ip), vehicle: saline 103 % of control | endpoint: mean survival time, dose: 12.5 mg/kg/injection, schedule: Q01DX009 (ip), vehicle: saline 113 % of control | endpoint: mean survival time, dose: 25.0 mg/kg/injection, schedule: Q01DX009 (ip), vehicle: saline 111 % of control

Nn1[nH]c(=O)c2nc[nH]c2c1=O
inactive: endpoint: median survival time, dose: 15.0 mg/kg/injection, schedule: Q01DX005 (ip), vehicle: saline with Tween-80 103 % of control | endpoint: median survival time, dose: 30.0 mg/kg/injection, schedule: Q01DX005 (ip), vehicle: saline with Tween-80 111 % of control | endpoint: median survival time, dose: 60.0 mg/kg/injection, schedule: Q01DX005 (ip), vehicle: saline with Tween-80 102 % of control

CCOC(=O)N1C2CC(C3C2N3S(=O)(=O)c2ccccc2)N1C(=O)OCC (stereo not drawn)
inactive: [1] 104 % of control | [2] 103 % of control | [3] 90 % of control

CCOC(=O)c1cc([N+](=O)[O-])cc([N+](=O)[O-])c1Sc1ncnc2nc[nH]c12
inactive: endpoint: mean survival time, dose: 0.63 mg/kg/injection, schedule: Q01DX005 (ip), vehicle: other 98 % of control | endpoint: mean survival time, dose: 1.25 mg/kg/injection, schedule: Q01DX005 (ip), vehicle: other 102 % of control | endpoint: mean survival time, dose: 2.5 mg/kg/injection, schedule: Q01DX005 (ip), vehicle: other 110 % of control | endpoint: mean survival time, dose: 5.0 mg/kg/injection, schedule: Q01DX005 (ip), vehicle: other 100 % of control | endpoint: mean survival time, dose: 6.25 mg/kg/injection, schedule: Q01DX005 (ip), vehicle: other 120 % of control | endpoint: mean survival time, dose: 10.0 mg/kg/injection, schedule: Q01DX005 (ip), vehicle: other 107 % of control | endpoint: mean survival time, dose: 18.8 mg/kg/injection, schedule: Q01DX005 (ip), vehicle: other 112 % of control

Cc1cc2ncn(CC(=O)O)c2cc1C
inactive: [4] 98 % of control | [5] 93 % of control

CCC(c1ccc2cc(OC)ccc2c1)C(CC(=O)O)C(=O)OC (stereo not drawn)
inactive: endpoint: mean survival time, dose: 100.0 mg/kg/injection, schedule: Q01DX009 (ip), vehicle: Klucel (hydroxypropylcellulose) (HPC) 98 % of control | endpoint: mean survival time, dose: 200.0 mg/kg/injection, schedule: Q01DX009 (ip), vehicle: Klucel (hydroxypropylcellulose) (HPC) 98 % of control | endpoint: mean survival time, dose: 400.0 mg/kg/injection, schedule: Q01DX009 (ip), vehicle: Klucel (hydroxypropylcellulose) (HPC) 100 % of control

CCOC(CC)C(O)(c1ccc(N(C)C)cc1)c1ccc(N(C)C)cc1 (stereo not drawn)
inactive: [1] 97 % of control | [2] 102 % of control | [3] 94 % of control

Fc1ccc(NCCS)cc1
inactive: endpoint: mean survival time, dose: 100.0 mg/kg/injection, schedule: Q01DX009 (ip), vehicle: saline sonified 97 % of control | endpoint: mean survival time, dose: 200.0 mg/kg/injection, schedule: Q01DX009 (ip), vehicle: saline sonified 98 % of control | endpoint: mean survival time, dose: 400.0 mg/kg/injection, schedule: Q01DX009 (ip), vehicle: saline sonified 103 % of control

O=C(CC(O)C(Cl)(Cl)Cl)c1ccccc1 (stereo not drawn)
inactive: endpoint: mean survival time, dose: 50.0 mg/kg/injection, schedule: Q04DX002 (ip), vehicle: saline with Tween-80 88 % of control | [6] 88 % of control

Nc1nc2c(ncn2-c2ccc(OCCNC(=O)Nc3cccc(S(=O)(=O)F)c3)cc2)c(=O)[nH]1
inactive: [6] 104 % of control | [7] 96 % of control | [8] 90 % of control

N#[N+]c1c(O)ccc2ccccc12
inactive: [6] 107 % of control | [7] 103 % of control | [8] 100 % of control

CN(C)c1ccc(/C=N\NC(=O)CNC(=O)Nc2ccc(F)cc2)c(Cl)c1
inactive: endpoint: mean survival time, dose: 50.0 mg/kg/injection, schedule: Q01DX009 (ip), vehicle: saline with Tween-80 100 % of control | [4] 88 % of control | [5] 92 % of control

Cc1ccccc1NC(=O)Oc1cccc(OC(=O)c2ccccc2)c1
inactive: [6] 103 % of control | [7] 103 % of control | [8] 91 % of control
